Source: BigSolDB 2.1

Cc1ccccc1S(N)(=O)=O
Conditions | solubility (mole fraction)
in acetone, 273.15 K | 0.0728
in acetone, 279.15 K | 0.0787
in acetone, 283.75 K | 0.0844
in acetone, 289.15 K | 0.091
in acetone, 298.95 K | 0.105
in acetone, 303.25 K | 0.113
in acetone, 308.65 K | 0.124
in acetone, 313.15 K | 0.134
in acetone, 318.15 K | 0.146
in acetone, 323.15 K | 0.158
in acetonitrile, 273.15 K | 0.0167
in acetonitrile, 279.15 K | 0.0196
in acetonitrile, 283.95 K | 0.022
in acetonitrile, 293.35 K | 0.0297
in acetonitrile, 298.95 K | 0.0347
in acetonitrile, 303.25 K | 0.0401
in acetonitrile, 308.95 K | 0.0476
in acetonitrile, 313.15 K | 0.0533
in acetonitrile, 319.15 K | 0.0634
in acetonitrile, 323.85 K | 0.0723
in cyclohexanone, 273.15 K | 0.0803
in cyclohexanone, 279.15 K | 0.0861
in cyclohexanone, 283.95 K | 0.0927
in cyclohexanone, 289.15 K | 0.0992
in cyclohexanone, 293.35 K | 0.105
in cyclohexanone, 298.95 K | 0.114
in cyclohexanone, 303.25 K | 0.122
in cyclohexanone, 308.95 K | 0.133
in cyclohexanone, 313.15 K | 0.143
in cyclohexanone, 319.15 K | 0.156
in cyclohexanone, 323.85 K | 0.168
in cyclopentanone, 273.15 K | 0.098
in cyclopentanone, 279.15 K | 0.104
in cyclopentanone, 283.95 K | 0.111
in cyclopentanone, 289.15 K | 0.118
in cyclopentanone, 293.35 K | 0.124
in cyclopentanone, 298.95 K | 0.133
in cyclopentanone, 303.25 K | 0.142
in cyclopentanone, 308.95 K | 0.152
in cyclopentanone, 313.15 K | 0.16
in cyclopentanone, 319.15 K | 0.175
in cyclopentanone, 323.85 K | 0.187
in dichloromethane, 273.15 K | 0.00161
in dichloromethane, 279.15 K | 0.00199
in dichloromethane, 283.95 K | 0.00233
in dichloromethane, 289.15 K | 0.00304
in dichloromethane, 293.35 K | 0.00365
in dichloromethane, 298.95 K | 0.00463
in dichloromethane, 303.25 K | 0.00547
in dichloromethane, 308.95 K | 0.00697
in dichloromethane, 312.15 K | 0.00785
in ethanol, 273.15 K | 0.00764
in ethanol, 279.15 K | 0.00971
in ethanol, 283.75 K | 0.0116
in ethanol, 289.15 K | 0.0147
in ethanol, 298.95 K | 0.0196
in ethanol, 303.25 K | 0.0226
in ethanol, 308.65 K | 0.0275
in ethanol, 313.15 K | 0.0315
in ethanol, 318.15 K | 0.0374
in ethanol, 323.15 K | 0.0439
in ethyl acetate, 273.15 K | 0.0221
in ethyl acetate, 279.15 K | 0.0248
in ethyl acetate, 283.75 K | 0.0278
in ethyl acetate, 289.15 K | 0.0307
in ethyl acetate, 298.95 K | 0.0377
in ethyl acetate, 303.25 K | 0.0416
in ethyl acetate, 308.65 K | 0.0471
in ethyl acetate, 313.15 K | 0.0518
in ethyl acetate, 318.15 K | 0.0578
in ethyl acetate, 323.15 K | 0.0643
in ethyl formate, 273.15 K | 0.013
in ethyl formate, 279.15 K | 0.0146
in ethyl formate, 283.95 K | 0.0165
in ethyl formate, 289.15 K | 0.0185
in ethyl formate, 293.35 K | 0.0207
in ethyl formate, 298.95 K | 0.0239
in ethyl formate, 303.25 K | 0.0273
in ethyl formate, 308.95 K | 0.0316
in ethyl formate, 313.15 K | 0.0354
in ethyl formate, 319.15 K | 0.0408
in ethyl formate, 323.85 K | 0.0461
in isobutanol, 273.15 K | 0.00205
in isobutanol, 279.15 K | 0.00284
in isobutanol, 283.75 K | 0.00363
in isobutanol, 289.15 K | 0.00476
in isobutanol, 298.95 K | 0.00768
in isobutanol, 303.25 K | 0.00934
in isobutanol, 308.65 K | 0.012
in isobutanol, 313.15 K | 0.0144
in isobutanol, 318.15 K | 0.0178
in isobutanol, 323.15 K | 0.0215
in isopentanol, 273.15 K | 0.00248
in isopentanol, 279.15 K | 0.00333
in isopentanol, 283.95 K | 0.00419
in isopentanol, 289.15 K | 0.00534
in isopentanol, 293.35 K | 0.00642
in isopentanol, 298.95 K | 0.00805
in isopentanol, 303.25 K | 0.00978
in isopentanol, 308.95 K | 0.0125
in isopentanol, 313.15 K | 0.0144
in isopentanol, 319.15 K | 0.0183
in isopentanol, 323.85 K | 0.0214
in isopropanol, 273.15 K | 0.00343
in isopropanol, 279.15 K | 0.00464
in isopropanol, 283.75 K | 0.00581
in isopropanol, 289.15 K | 0.00756
in isopropanol, 298.95 K | 0.0115
in isopropanol, 303.25 K | 0.0137
in isopropanol, 308.65 K | 0.0175
in isopropanol, 313.15 K | 0.0208
in isopropanol, 318.15 K | 0.0252
in isopropanol, 323.15 K | 0.0304
in methanol, 273.15 K | 0.0128
in methanol, 279.15 K | 0.016
in methanol, 283.75 K | 0.0189
in methanol, 289.15 K | 0.0233
in methanol, 298.95 K | 0.0311
in methanol, 303.25 K | 0.0355
in methanol, 308.65 K | 0.0422
in methanol, 313.15 K | 0.0489
in methanol, 318.15 K | 0.0567
in methanol, 323.15 K | 0.0658
in methyl acetate, 273.15 K | 0.027
in methyl acetate, 279.15 K | 0.0303
in methyl acetate, 283.95 K | 0.0337
in methyl acetate, 289.15 K | 0.0374
in methyl acetate, 293.35 K | 0.0405
in methyl acetate, 298.95 K | 0.046
in methyl acetate, 303.25 K | 0.0513
in methyl acetate, 308.95 K | 0.058
in methyl acetate, 313.15 K | 0.0637
in methyl acetate, 319.15 K | 0.0731
in methyl acetate, 323.85 K | 0.0809
in n-butanol, 273.15 K | 0.00341
in n-butanol, 279.15 K | 0.00451
in n-butanol, 283.75 K | 0.00556
in n-butanol, 289.15 K | 0.00731
in n-butanol, 298.95 K | 0.0104
in n-butanol, 303.25 K | 0.0123
in n-butanol, 308.65 K | 0.0154
in n-butanol, 313.15 K | 0.0181
in n-butanol, 318.15 K | 0.0218
in n-butanol, 323.15 K | 0.0262
in n-pentanol, 273.15 K | 0.0027
in n-pentanol, 279.15 K | 0.00363
in n-pentanol, 283.95 K | 0.00456
in n-pentanol, 289.15 K | 0.00568
in n-pentanol, 293.35 K | 0.00705
in n-pentanol, 298.95 K | 0.00875
in n-pentanol, 303.25 K | 0.0108
in n-pentanol, 308.95 K | 0.0134
in n-pentanol, 313.15 K | 0.0158
in n-pentanol, 319.15 K | 0.0195
in n-pentanol, 323.85 K | 0.023
in n-propanol, 273.15 K | 0.00418
in n-propanol, 279.15 K | 0.0055
in n-propanol, 283.75 K | 0.00674
in n-propanol, 289.15 K | 0.00847
in n-propanol, 298.95 K | 0.0126
in n-propanol, 303.25 K | 0.0148
in n-propanol, 308.65 K | 0.0182
in n-propanol, 313.15 K | 0.0215
in n-propanol, 318.15 K | 0.0257
in n-propanol, 323.15 K | 0.03
